From patent EP1832585A1, “Thiazole-piperidine derivatives for treatment of hyperproliferative diseases” (Oridis Biomed Forschungs- und Entwicklungs GmbH, priority 2006, dated 2007)

Legend:
Type in all cases: cell-based
HepG2 = assay: Proliferation assay (CellTiter-Glo luminescent cell viability assay), HepG2; conditions: human hepatoblastoma HepG2; 48 hours incubation; 10% (v/v) FCS; read-out: EC50, inhibition of HepG2 proliferation
Description: (§1) The assay is based on the relation that the ATP content is directly proportional to the number of cells present in the culture. The CellTiter-Glo® assay is performed to measure the proliferation rate of human hepatoma (HuH7, PLC/PRF/5, Hep3B, SK-Hep1), human hepatoblastoma (HepG2), human colon carcinoma (CX-2), human breast cancer (SK-Br-3), human […] (HeLa) and human pancreatic carcinoma (DAN-G) cell lines (see Example 2). […] Further, HepG2 and Hep3B are inhibited with an EC50 of 0.9 and 0.3 µM, respectively.
(§2) To determine the inhibition of cell proliferation a luminescent cell viability assay (CellTiter-Glo®; Promega, Madison, USA) is implemented. The assay is based on the relation that the ATP content is directly proportional to the number of cells present in the culture, see Technical Bulletin No. 228 "CellTiter-Glo® Luminescent Cell viability Assay", Revised 2/04. Promeg, Madison, USA. […] Triplicates are measured for each concentration. […] The final cell number is determined after 48 hour of incubation. […] After subsequent incubation for additional 10 minutes at room temperature the luminescence signal was recorded within 30 min. EC50 values are calculated using the four-parametric Hill equation (Sigma Plot). […]

Hep3B = assay: Proliferation assay (CellTiter-Glo luminescent cell viability assay), Hep3B; conditions: human hepatoma Hep3B; 48 hours incubation; 10% (v/v) FCS; read-out: EC50, inhibition of Hep3B proliferation
Description: as §1, §2

Sk-Br-3 = assay: Proliferation assay (CellTiter-Glo luminescent cell viability assay), SK-Br-3; conditions: human breast cancer SK-Br-3; 48 hours incubation; 10% (v/v) FCS; read-out: EC50 (effective concentration reducing cell proliferation by 50%), inhibition of SK-Br-3 proliferation
Description: as §1, §2

HeLa = assay: Proliferation assay (CellTiter-Glo luminescent cell viability assay), HeLa; conditions: HeLa (printed as human ovarian carcinoma); 48 hours incubation; 10% (v/v) FCS; read-out: EC50 (effective concentration reducing cell proliferation by 50%), inhibition of HeLa proliferation
Description: as §1, §2

CX-2 = assay: Proliferation assay (CellTiter-Glo luminescent cell viability assay), CX-2; conditions: human colon carcinoma CX-2; 48 hours incubation; 10% (v/v) FCS; read-out: EC50 (effective concentration reducing cell proliferation by 50%), inhibition of CX-2 proliferation
Description: as §1, §2

DAN-G = assay: Proliferation assay (CellTiter-Glo luminescent cell viability assay), DAN-G; conditions: human pancreatic carcinoma DAN-G; 48 hours incubation; 10% (v/v) FCS; read-out: EC50 (effective concentration reducing cell proliferation by 50%), inhibition of DAN-G proliferation
Description: as §1, §2

HuH7 = assay: Proliferation assay (CellTiter-Glo luminescent cell viability assay), HuH7; conditions: Huh-7; human hepatoma HuH7; 48 hours incubation; 10% (v/v) FCS; compounds 0 to 20 µM; read-out: EC50 (effective concentration reducing cell proliferation by 50%), inhibition of HuH7 proliferation
Description: as §1
To determine the inhibition of cell proliferation a luminescent cell viability assay (CellTiter-Glo®; Promega, Madison, USA) is implemented. The assay is based on the relation that the ATP content is directly proportional to the number of cells present in the culture, see Technical Bulletin No. 228 "CellTiter-Glo® Luminescent Cell viability Assay", Revised 2/04. Promeg, Madison, USA. The CellTiter-Glo® assay is performed to measure the proliferation rate of human hepatoma (HuH7, PLC/PRF/5, Hep3B, SK-Hep1), human hepatoblastoma (HepG2), human colon carcinoma (CX-2), human breast cancer (SK-Br-3), human […] (HeLa) and human pancreatic carcinoma (DAN-G) cell lines. 3000 viable cells (viability ≥ 90%) are seeded in opaque-walled 96-well plates and incubated for 24 hours in DMEM, supplemented with 2 mM glutamin. Cell proliferation is stimulated by addition of FCS to a final concentration of 10% (v/v). Simultaneously the compounds I to XVII (see Table 1 A to 1D and 2) are added in a concentration range of 0 to 20 µM. Triplicates are measured for each concentration. Cells and compounds (see Table 1 A to 1D, and 2) are incubated for a period of 48 hours in a volume of 140 µl cell culture medium (10% (v/v) FCS, 2 mM Glutamin, DMEM). The compounds are solved in 60% to 100% (v/v) DMSO at a concentration of 2 mM. The final DMSO concentration under assay conditions never exceeded 1% (v/v). Throughout the assay cells are kept in a humidified incubator (95% rH) at 37°C and 5% CO2. The final cell number is determined after 48 hour of incubation. Therefore 140 µl CellTiter-Glo®Reagent is added in each well. The contents are mixed on an orbital shaker for 2 minutes at room temperature. After subsequent incubation for additional 10 minutes at room temperature the luminescence signal was recorded within 30 min. EC50 values are calculated using the four-parametric Hill equation (Sigma Plot).
Control values are: (1) 10% (v/v) FCS, 2 mM Glutamin, DMEM -> maximum cell number and (2) 2 mM Glutamin, DMEM -> initial cell number.

Row | Structure (SMILES) | EC50 (HuH7) [µM] | other results
1 | O=C(/C=C/c1ccc2c(c1)OCO2)N1CCC(c2nc(-c3ccc4c(c3)OCCO4)cs2)CC1 [Compound I, E-3-{4-[4-(3,4-ethylendioxphenyl)-thiazol-2-yl]-piperidin-1-yl}-1-(3,4-methylendioxyphenyl)-3-oxo-prop-1-ene] | 0.33 | EC50 (HepG2): 0.9 µM; EC50 (Hep3B): 0.3 µM; EC50 (Sk-Br-3): 10.8 µM; EC50 (HeLa): 14.8 µM; EC50 (CX-2): 19.1 µM; EC50 (DAN-G): 4.69 µM
2 | CCOC(=O)c1cc(-c2csc(C3CCN(C(=O)C(Cc4ccccc4F)NC(C)=O)CC3)n2)on1 (stereo not drawn) [III] | 1.61 | –
3 | CCOC(=O)c1cc(-c2csc(C3CCN(C(=O)/C(C)=C/c4cc(OC)c(OC)cc4OC)CC3)n2)on1 [II] | 12.4 | –
4 | COC(=O)C(NC(=O)N1CCC(c2nc(-c3ccc4c(c3)OCCO4)cs2)CC1)C(C)C (stereo not drawn) [IV] | 5.02 | –
5 | O=C(C1COc2ccccc2O1)N1CCC(c2nc(-c3ccc4c(c3)OCCO4)cs2)CC1 (stereo not drawn) [IX] | 3.93 | –
6 | CCOC(=O)CNC(=O)N1CCC(c2nc(-c3cccc(Br)c3)cs2)CC1 [VIII] | 1.89 | –
7 | O=C(c1cccnc1OCC(F)(F)F)N1CCC(c2nc(-c3ccc4c(c3)OCCO4)cs2)CC1 [VII] | 6.2 | –
8 | CCOC(=O)c1cc(-c2csc(C3CCN(C(=O)/C=C/c4ccc5c(c4)OCO5)CC3)n2)on1 [VI] | 20.7 | –
9 | Cc1nn(C)c(Cl)c1/C=C/C(=O)N1CCC(c2nc(-c3ccc4c(c3)OCCO4)cs2)CC1 [V] | 10.7 | EC50 (Sk-Br-3): > 20 µM; EC50 (HeLa): 18.7 µM; EC50 (CX-2): > 20 µM; EC50 (DAN-G): 11.1 µM
10 | O=C(c1csc(-c2cnccn2)n1)N1CCC(c2nc(-c3ccc4c(c3)OCCO4)cs2)CC1 [XIII] | 6 | –
11 | CCN(CC)c1ccc(-c2csc(C3CCN(Cc4ccc(N(CCC#N)CCC#N)cc4)CC3)n2)cc1 [XII] | 5.76 | –
12 | O=C1CC(C(=O)N2CCC(c3nc(-c4ccc5c(c4)OCCO5)cs3)CC2)CN1Cc1cccs1 (stereo not drawn) [XIV] | 29 | –
13 | O=C(c1ccccc1C[S+]([O-])c1ccccc1)N1CCC(c2nc(-c3ccc4c(c3)OCCO4)cs2)CC1 (stereo not drawn) [XI] | 3.35 | –
14 | CCOC(=O)/C=C/C(=O)N1CCC(c2nc(-c3ccc(Cl)c([N+](=O)[O-])c3)cs2)CC1 [XVII] | 0.63 | –
15 | O=C(C1N=Nc2ccccc21)N1CCC(c2nc(-c3ccc4c(c3)OCCO4)cs2)CC1 (stereo not drawn) [XVI] | 24.9 | –
16 | Cc1cc(Cl)ccc1NC(=O)COCC(=O)N1CCC(c2nc(-c3ccc4c(c3)OCCO4)cs2)CC1 [XV] | 4.94 | –
17 | O=C(CCCc1nc2ccccc2[nH]1)N1CCC(c2nc(-c3cccc(Br)c3)cs2)CC1 [X] | 1.93 | –
